The values below come from patent US7563613B2, “Detoxification and decontamination using nanotechnology therapy” (University of Florida, priority 2001, dated 2009).

For series [1] the following is noted: cited from earlier work.
The subject of series [2] is guinea pig isolated hearts. Description: bupivacaine-induced QRS prolongation in isolated hearts (FIG. 8). To be noted: bupivacaine (1 μM); isolated hearts paced at 200 BPM.
The conditions of series [3]: at toxic plasma concentration; cited from earlier work.

Consider `C[C@H]1O[C@@H](O[C@H]2[C@@H](O)C[C@H](O[C@H]3[C@@H](O)C[C@H](O[C@H]4CC[C@@]5(C)[C@H](CC[C@@H]6[C@@H]5C[C@@H](O)[C@]5(C)[C@@H](C7=CC(=O)OC7)CC[C@]65O)C4)O[C@@H]3C)O[C@@H]2C)C[C@H](O)[C@@H]1O` [digoxin], for which the “concentration at which toxicity is caused” value in series [1] (low concentrations) is “approximately 1 nM”. Consider `CCCCN1CCCCC1C(=O)Nc1c(C)cccc1C` (stereo not shown) [Bupivacaine, bupivacaine], for which the QRS prolongation result in series [2] is recorded as “induces QRS prolongation”. Take `CN(C)CCC=C1c2ccccc2CCc2ccccc21` [amitriptyline]: the bound in plasma in series [3] was 94.8±0.8%. Further, the “plasma concentration that begins to cause cardiac toxicity” value in series [1] (in vivo) is reported as ~1,000 ng/ml.
